Key:
porcine nasal mucosa = assay: Transepithelial transport of [3H]water across porcine nasal mucosa in vitro, continuous flow apparatus; format: in vitro ADME
Description: (§1) Porcine buccal and nasal mucosa (lateral) was obtained at slaughter and utilized within 3 hours of harvest. Tissue samples approximately 8 mm in diameter were mounted between two halves of through-flow mucosal perfusion cells exposing an area of epithelial surface approximately 0.20 cm^2 for transepithelial transport. The chambers were mounted on water-jacketed blocks maintained at 37° C. During the set up period, the exposed epithelial surface was kept moist with phosphate buffered saline (PBS, 0.01M, pH 7.4). The buffer solution was removed by vacuum immediately prior to application of labeled test compound. […] In the receiver compartment, PBS was continuously pumped through the lower chamber (i.e., blood compartment) as a collection fluid at rate of 1.8 mL/hr, which was previously determined to be sufficient to maintain sink conditions in the receiver compartment. This fluid was collected into scintillation vials for 1 or 2 hour intervals over the entire collection period and radioactivity was determined by liquid scintillation counter. Transepithelial flux of the marker solute in the presence of various concentrations of permeation enhancers was calculated at each sampling interval from the relationship: Flux=Q/At where Q is the finite quantity of solute traversing the tissue barrier (dpm) in time t (min); A is the area of epithelial surface exposed in cm^2. […]

porcine buccal mucosa = assay: Transepithelial transport of [3H]water across porcine buccal mucosa in vitro, continuous flow apparatus; format: in vitro ADME
Description: as §1

[1] = essentially the same amount as i.v.; cited from earlier work
healthy female rabbits = conditions: rabbit, in vivo
Description: A 10 day, repeat dose, vaginal toxicity study was conducted in healthy female rabbits. Three doses and two controls were used. […] Doses of SUPPOCIRE® and SUPPOCIRE® plus ethoxydiglycol were used as controls. The study findings are summarized below.

Row | mean steady state Kp of [3H]water (porcine nasal mucosa; in the presence of 15% (v/v) TRANSCUTOL, n=7) | mean steady state Kp of [3H]water (porcine buccal mucosa; in the presence of 30% (v/v) TRANSCUTOL, n=7) | Compound | increase of mean steady state Kp compared to control PBS (porcine nasal mucosa; 15% (v/v) TRANSCUTOL versus control PBS) [%] | increase of mean steady state Kp as compared to control (porcine buccal mucosa; 30% (v/v) TRANSCUTOL versus control) [%] | systemic level after oral administration compared to i.v. administration [1] | NOEL (healthy female rabbits; female, 10 days) [mg/3 kg rabbit dose] | NOEL, equivalent human dose (healthy female rabbits; female, 10 days) [mg] | finding on cervix or uterus (healthy female rabbits) | one-time human dose extrapolated to be safe (healthy female rabbits) [mg] | systemic side effects (healthy female rabbits)
1 | 1.83±0.02×10^−3 cm/min | 1.11±0.01×10^−3 cm/min | CCOCCOCCO [TRANSCUTOL®, diethyleneglycol monoethyl ether] | ~37 | ~25 | – | – | – | – | – | –
2 | – | – | NCCCC(O)(P(=O)(O)O)P(=O)(O)O [alendronate] | – | – | below 1% | 0.013 | 0.3 | No erythema, inflammation or erosion | 10 | no systemic side effects
